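Where inhibition never reached the appropriate level, the endpoint shown equals the highest concentration tested. Otherwise, values were interpolated linearly from a five-concentration, 48-hour dose response in 96-well plates. Definition used: TGI = concentration required for complete inhibition of growth.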
What was measured:
Assay in all cases: inhibition of tumour cell growth, NCI panel, 48 h
KM12 colon = tested on: KM12 colon
M19-MEL melanoma = tested on: M19-MEL melanoma
SF-268 CNS = tested on: SF-268 CNS
OVCAR-5 ovarian = tested on: OVCAR-5 ovarian
MOLT-4 leukemia = tested on: MOLT-4 leukemia
OVCAR-3 ovarian = tested on: OVCAR-3 ovarian
IGROV1 ovarian = tested on: IGROV1 ovarian
SF-539 CNS = tested on: SF-539 CNS
UACC-62 melanoma = tested on: UACC-62 melanoma
UO-31 renal = tested on: UO-31 renal
M14 melanoma = tested on: M14 melanoma
LOX IMVI melanoma = tested on: LOX IMVI melanoma
HOP-62 NSCLC = tested on: HOP-62 NSCLC
KM20L2 colon = tested on: KM20L2 colon
HOP-92 NSCLC = tested on: HOP-92 NSCLC
DMS 273 small cell lung = tested on: DMS 273 small cell lung
DMS 114 small cell lung = tested on: DMS 114 small cell lung
NCI-H23 lung = tested on: NCI-H23 lung
NCI-H522 lung = tested on: NCI-H522 lung
HOP-18 NSCLC = tested on: HOP-18 NSCLC
A498 renal = tested on: A498 renal
786-0 renal = tested on: 786-0 renal
U251 CNS = tested on: U251 CNS
SK-MEL-28 melanoma = tested on: SK-MEL-28 melanoma
K-562 leukemia = tested on: K-562 leukemia
ACHN renal = tested on: ACHN renal
CCRF-CEM leukemia = tested on: CCRF-CEM leukemia
SK-OV-3 ovarian = tested on: SK-OV-3 ovarian
SNB-75 CNS = tested on: SNB-75 CNS
SF-295 CNS = tested on: SF-295 CNS
OVCAR-4 ovarian = tested on: OVCAR-4 ovarian
SW-620 colon = tested on: SW-620 colon
DLD-1 colon = tested on: DLD-1 colon
CAKI-1 renal = tested on: CAKI-1 renal
SK-MEL-5 melanoma = tested on: SK-MEL-5 melanoma
RPMI-8226 leukemia = tested on: RPMI-8226 leukemia
UACC-257 melanoma = tested on: UACC-257 melanoma
HT29 colon = tested on: HT29 colon
XF 498 CNS = tested on: XF 498 CNS
HL-60(TB) leukemia = tested on: HL-60(TB) leukemia
SR leukemia = tested on: SR leukemia
OVCAR-8 ovarian = tested on: OVCAR-8 ovarian
SN12C renal = tested on: SN12C renal
A549 NSCLC = tested on: A549 NSCLC
SNB-78 CNS = tested on: SNB-78 CNS
EKVX NSCLC = tested on: EKVX NSCLC
HCC-2998 colon = tested on: HCC-2998 colon
HCT-116 colon = tested on: HCT-116 colon
SNB-19 CNS = tested on: SNB-19 CNS
LXFL 529 NSCLC = tested on: LXFL 529 NSCLC
TK-10 renal = tested on: TK-10 renal
HCT-15 colon = tested on: HCT-15 colon
NCI-H460 lung = tested on: NCI-H460 lung

Measured: TGI

CCN(CC)CCN1CCc2c([nH]c3ccccc23)C1c1cccnc1 (stereo not drawn)
> 100 µM: KM12 colon | M19-MEL melanoma | SF-268 CNS | OVCAR-5 ovarian | MOLT-4 leukemia | OVCAR-3 ovarian | IGROV1 ovarian | SF-539 CNS | UACC-62 melanoma | UO-31 renal | M14 melanoma | LOX IMVI melanoma | HOP-62 NSCLC | KM20L2 colon | HOP-92 NSCLC | DMS 273 small cell lung | DMS 114 small cell lung | NCI-H23 lung | NCI-H522 lung | HOP-18 NSCLC | A498 renal | 786-0 renal | U251 CNS | SK-MEL-28 melanoma | K-562 leukemia | ACHN renal | CCRF-CEM leukemia | SK-OV-3 ovarian | SNB-75 CNS | SF-295 CNS | OVCAR-4 ovarian | SW-620 colon | DLD-1 colon | CAKI-1 renal | SK-MEL-5 melanoma | RPMI-8226 leukemia | UACC-257 melanoma | HT29 colon | XF 498 CNS | HL-60(TB) leukemia | SR leukemia | OVCAR-8 ovarian | SN12C renal | A549 NSCLC | SNB-78 CNS | EKVX NSCLC | HCC-2998 colon | HCT-116 colon | SNB-19 CNS | LXFL 529 NSCLC | TK-10 renal | HCT-15 colon | NCI-H460 lung
